A short description of this data set: in vitro. Conditions: human.

Among the data in patent publication US9890133B2 (priority 2011, dated 2018) are CC50 values, retold here.

In brackets after ≈: the same amount, converted by molar mass.

In the case of `CC(=O)Nc1c(N)ccc2c1C(=O)C1(O)c3ccc(C(C)C)cc3OC21O` (stereo not shown) [Example 59, N-(2-Amino-4b,9b-dihydroxy-7-isopropyl-10-oxo-9b,10-dihydro-4bH-benzo[d]indeno[1,2-b]furan-1-yl)acetamide], the CC50 (Picorana CC50) is greater than 50 µg/mL. Same read-out and setting: the same measure for `CC(C)c1ccc2c(c1)OC1(O)c3ccc([N+](=O)[O-])c(N)c3C(=O)C21O` (stereo not shown) [Example 60, 1-Amino-4b,9b-dihydroxy-7-isopropyl-2-nitro-4bH-indeno[1,2-b]benzofuran-10(9bH)-one]: 10.6 µg/mL (≈ 29.6 µM); for `CC(C)c1cc(C(C)C)c2c(c1)C1(O)C(=O)c3ccccc3C1(O)O2` (stereo not shown) [Example 64, 4b,9b-Dihydroxy-6,8-diisopropyl-4b,9b-dihydro-5-oxa-indeno[2,1-a]inden-10-one]: 8.13 µg/mL (≈ 24 µM).

For the setting “Picorana CC50”, `CC(C)c1ccc2c(c1)OC1(O)c3ccccc3C(=O)C21N` (stereo not shown) [Example 65, 9b-Amino-4b-hydroxy-7-isopropyl-4b,9b-dihydro-5-oxa-indeno[2,1-a]inden-10-one] displayed a CC50 of 18.2 µg/mL (≈ 61.6 µM). On the same count and under the same terms, for `CCCCCCNC12C(=O)c3ccccc3C1(O)Oc1cc(C(C)C)ccc12` (stereo not shown) [Example 67, 9b-Hexylamino-4b-hydroxy-7-isopropyl-4b,9b-dihydro-5-oxa-indeno[2,1-a]inden-10-one] the value was 9.42 µg/mL (≈ 24.8 µM); for `CC(C)c1cc(C(C)C)c2c(c1)C1(N)C(=O)c3ccccc3C1(O)O2` (stereo not shown) [Example 68, 9b-Amino-4b-hydroxy-6,8-diisopropyl-4b,9b-dihydro-5-oxa-indeno[2,1-a]inden-10-one], 8.94 µg/mL (≈ 26.5 µM). Same read-out and setting: for `CC(C)c1ccc2c(c1)OC1(O)c3ccccc3C(=O)C21N=C=O` (stereo not shown) [Example 69, 4b-Hydroxy-9b-isocyanato-7-isopropyl-4b,9b-dihydro-5-oxa-indeno[2,1-a]-inden-10-one] the value was 70 µg/mL (≈ 218 µM). The same measure, in the same setting: for `CC(C)NC(=O)NC12C(=O)c3c([N+](=O)[O-])cccc3C1(O)Oc1cc(C(C)C)ccc12` (stereo not shown) [Example 76, 1-(4b-Hydroxy-7-isopropyl-1-nitro-10-oxo-4b,10-dihydro-5-oxa-indeno[2,1-a]inden-9b-yl)-3-isopropyl-urea] the value was greater than 50 µg/mL.

For the compound `CC(C)C(=O)NC12C(=O)c3c(N)cccc3C1(O)Oc1cc(C(C)C)ccc12` (stereo not shown) [Example 77, N-(1-Amino-4b-hydroxy-7-isopropyl-10-oxo-4b,10-dihydro-5-oxa-indeno[2,1-a]inden-9b-yl)-isobutylamide], the CC50 is 53.9 µg/mL (≈ 142 µM). The same compound gave a CC50 (Picorana CC50) greater than 50 µg/mL. The corresponding values for `CCCCC(=O)NC12C(=O)c3c(N)cccc3C1(O)Oc1cc(C(C)C)ccc12` (stereo not shown) [Example 78, Pentanoic acid (1-amino-4b-hydroxy-7-isopropyl-10-oxo-4b,10-dihydro-5-oxa-indeno[2,1-a]inden-9b-yl)-amide] are 20.6 µg/mL (≈ 52.3 µM) and 47.7 µg/mL (≈ 121 µM). For the compound `CO/N=C1/c2ccccc2C2(O)Oc3cc(C(C)C)ccc3C12O` (stereo not shown) [Example 88, 4b,9b-Dihydroxy-7-isopropyl-4bH-indeno[1,2-b]benzofuran-10(9bH)-one O-methyl oxime], under “Picorana CC50”, the CC50 is 8.16 µg/mL (≈ 25.1 µM). The same measure, in the same setting: for `CCCC(=O)NC12C(=O)c3ccccc3C1(OC(=O)CCC)Oc1cc(C(C)C)ccc12` (stereo not shown) [Example 89, Butyric acid 9b-butyrylamino-7-isopropyl-10-oxo-9b,10-dihydro-5-oxa-indeno[2,1-a]inden-4b-yl ester] the value was greater than 50 µg/mL; for `CCCCCCCC(=O)NC12C(=O)c3ccccc3C1(O)Oc1cc(C(C)C)ccc12` (stereo not shown) [Example 90], 34 µg/mL (≈ 80.5 µM).

For `CCCCCC(=O)NC12C(=O)c3ccccc3C1(OC(=O)CCCCC)Oc1cc(C(C)C)ccc12` (stereo not shown) [Example 91, Hexanoic acid 9b-hexanoylamino-7-isopropyl-10-oxo-9b,10-dihydro-5-oxa-indeno[2,1-a]inden-4b-yl ester], the CC50 (Picorana CC50) was greater than 50 µg/mL. In turn, `CCCCCCC(=O)NC12C(=O)c3ccccc3C1(OC(=O)CCCCCC)Oc1cc(C(C)C)ccc12` (stereo not shown) [Example 92, Heptanoic acid 9b-heptanoylamino-7-isopropyl-10-oxo-9b,10-dihydro-5-oxa-indeno[2,1-a]inden-4b-yl ester] came in with a CC50 (Picorana CC50) greater than 50 µg/mL. Regarding `CCCCCCCC(=O)N[C@@]12C(=O)c3c(N)cccc3[C@]1(O)Oc1cc(C(C)C)ccc12` [Example 93, N-((4bS,9bS)-1-Amino-4b-hydroxy-7-isopropyl-10-oxo-9b,10-dihydro-4bH-indeno[1,2-b]benzofuran-9b-yl)octanamide], the CC50 was 6.23 µg/mL (≈ 14.3 µM). This compound also showed a CC50 (Picorana CC50) of 8.49 µg/mL (≈ 19.4 µM).

The compound `CCC(=O)N[C@@]12C(=O)c3c(N)cccc3[C@]1(OC(=O)CC)Oc1cc(C(C)C)ccc12` [Example 94, (4bR,9bS)-1-Amino-7-isopropyl-10-oxo-9b-propionamido-9b,10-dihydro-4bH-indeno[1,2-b]benzofuran-4b-yl propionate] gave a CC50 of 58.1 µg/mL (≈ 137 µM). For the setting “Picorana CC50”, this compound displayed a CC50 of 42.4 µg/mL (≈ 100 µM).

Take `CCCC(=O)N[C@@]12C(=O)c3c(N)cccc3[C@]1(OC(=O)CCC)Oc1cc(C(C)C)ccc12` [Example 95, (4bR,9bS)-1-Amino-9b-butyramido-7-isopropyl-10-oxo-9b,10-dihydro-4bH-indeno[1,2-b]benzofuran-4b-yl butyrate]: the CC50 worked out at 26 µg/mL (≈ 57.7 µM). Where the note is “Picorana CC50”, this compound returned a CC50 of 38.1 µg/mL (≈ 84.5 µM). The corresponding values for `CCCCCC(=O)NC12C(=O)c3c(N)cccc3C1(OC(=O)CCCCC)Oc1cc(C(C)C)ccc12` (stereo not shown) [Example 97, 1-amino-9b-hexanamido-7-isopropyl-10-oxo-9b,10-dihydro-4bH-benzo[d]indeno[1,2-b]furan-4b-yl hexanoate] are 8.8 µg/mL (≈ 17.4 µM) and greater than 50 µg/mL. The compound `CO[C@@]12C(=O)c3ccccc3[C@]1(O)Oc1cc(C(C)C)ccc12` [Example 98, (4bS,9bS)-4b-Hydroxy-7-isopropyl-9b-methoxy-4bH-indeno[1,2-b]benzofuran-10(9bH)-one] gave a CC50 (Picorana CC50) of 7.8 µg/mL (≈ 25.1 µM). `CCCCCCC(=O)NC12C(=O)c3c(N)cccc3C1(OC(=O)CCCCCC)Oc1cc(C(C)C)ccc12` (stereo not shown) [Example 99, 1-Amino-9b-heptanamido-7-isopropyl-10-oxo-9b,10-dihydro-4bH-benzo[d]indeno[1,2-b]furan-4b-yl heptanoate] showed a CC50 of 7.7 µg/mL (≈ 14.4 µM). For the same compound, the CC50 (Picorana CC50) was greater than 50 µg/mL.

Where the note is “Picorana CC50”, `CO[C@@]12Oc3cc(C(C)C)ccc3[C@]1(NC(N)=O)C(=O)c1ccccc12` [Example 100, 1-((4bS,9bS)-7-Isopropyl-4b-methoxy-10-oxo-9b,10-dihydro-4bH-indeno[1,2-b]benzofuran-9b-yl)urea] showed a CC50 of 40.6 µg/mL (≈ 115 µM).

In the case of `CNC(=O)N[C@@]12C(=O)c3ccccc3[C@]1(O)Oc1cc(C(C)C)ccc12` [Example 101, 1-((4bS,9bS)-4b-Hydroxy-7-isopropyl-10-oxo-9b,10-dihydro-4bH-indeno[1,2-b]benzofuran-9b-yl)-3-methylurea], for the setting “Picorana CC50”, the CC50 is greater than 50 µg/mL. Still for that read-out and setting: the same measure for `CCNC(=O)N[C@@]12C(=O)c3ccccc3[C@]1(O)Oc1cc(C(C)C)ccc12` [Example 102, 1-Ethyl-3-((4bS,9bS)-4b-hydroxy-7-isopropyl-10-oxo-9b,10-dihydro-4bH-indeno[1,2-b]benzofuran-9b-yl)urea]: greater than 50 µg/mL; for `CONC(=O)N[C@@]12C(=O)c3ccccc3[C@]1(O)Oc1cc(C(C)C)ccc12` [Example 103, 1-((4bS,9bS)-4b-Hydroxy-7-isopropyl-10-oxo-9b,10-dihydro-4bH-indeno[1,2-b]benzofuran-9b-yl)-3-methoxyurea]: greater than 50 µg/mL.

`CC(=O)N1c2cc(C)c(C)cc2C2(O)C(=O)c3ccccc3C12O` (stereo not shown) [Example 104, 5-Acetyl-4b,9b-dihydroxy-7,8-dimethyl-4b,5-dihydroindeno[1,2-b]indol-10(9bH)-one] gave a CC50 (Picorana CC50) greater than 50 µg/mL.

Turning to `CCC(=O)N1c2cc(C)c(C)cc2C2(O)C(=O)c3ccccc3C12O` (stereo not shown) [Example 105, 4b,9b-Dihydroxy-7,8-dimethyl-5-propionyl-4b,5-dihydroindeno[1,2-b]indol-10(9bH)-one], the CC50 (Picorana CC50) was greater than 50 µg/mL. The same measure, in the same setting: the same measure for `Cc1cc2c(cc1C)C1(O)C(=O)c3ccccc3C1(O)N2` (stereo not shown) [Example 106, 4b,9b-Dihydroxy-7,8-dimethyl-4b,5-dihydroindeno[1,2-b]indol-10(9bH)-one]: 3.53 µg/mL (≈ 12.5 µM); for `CC(=O)OC12C(=O)c3ccccc3C1(OC(C)=O)N(C(C)=O)c1cc(C)c(C)cc12` (stereo not shown) [Example 107, 5-Acetyl-7,8-dimethyl-10-oxo-4b,5,9b,10-tetrahydroindeno[1,2-b]indole-4b,9b-diyl diacetate]: greater than 50 µg/mL; for `CC(=O)N1c2ccccc2C2(N)C(=O)c3ccccc3C12O` (stereo not shown) [Example 108, 5-Acetyl-9b-amino-4b-hydroxy-5,9b-dihydro-4bH-indeno[1,2-b]indol-10-one]: 1.81 µg/mL (≈ 6.15 µM). In turn, `CC(=O)Nc1ccc([N+](=O)[O-])c2c1C(=O)C1(N)c3ccc(C(C)C)cc3OC21O` (stereo not shown) [Example 109, N-(9b-Amino-4b-hydroxy-7-isopropyl-4-nitro-10-oxo-9b,10-dihydro-4bH-5-oxa-indeno[2,1-a]inden-1-yl)-acetamide] yielded a CC50 (Picorana CC50) greater than 50 µg/mL. Still for that read-out and setting: the same measure for `CC(=O)Nc1ccc([N+](=O)[O-])c2c1C(=O)C1(NC(C)=O)c3ccc(C(C)C)cc3OC21OC(C)=O` (stereo not shown) [Example 110, Acetic acid 1,9b-bis-acetylamino-7-isopropyl-4-nitro-10-oxo-9b,10-dihydro-5-oxa-indeno[2,1-a]inden-4b-yl ester]: 14.4 µg/mL (≈ 29.9 µM); for `COC(=O)OC12Oc3cc(C(C)C)ccc3C1(NC(C)=O)C(=O)c1ccccc12` (stereo not shown) [Example 111, 9b-Acetamido-7-isopropyl-10-oxo-9b,10-dihydro-4bH-indeno[1,2-b]benzofuran-4b-yl methyl carbonate]: 43.6 µg/mL (≈ 110 µM).

Take `CCCCC(=O)OC12Oc3cc(C(C)C)ccc3C1(NC(C)=O)C(=O)c1ccccc12` (stereo not shown) [Example 112, 9b-Acetamido-7-isopropyl-10-oxo-9b,10-dihydro-4bH-indeno[1,2-b]benzofuran-4b-yl pentanoate]: for the setting “Picorana CC50”, the CC50 came to 42 µg/mL (≈ 99.6 µM).

In turn, `CCOC(=O)OC12Oc3cc(C(C)C)ccc3C1(NC(C)=O)C(=O)c1ccccc12` (stereo not shown) [Example 116, 9b-Acetamido-7-isopropyl-10-oxo-9b,10-dihydro-4bH-benzo[d]indeno[1,2-b]furan-4b-yl ethyl carbonate] showed a CC50 (Picorana CC50) of 41.7 µg/mL (≈ 102 µM). The same measure, in the same setting: for `CC(=O)NC12C(=O)c3ccccc3C1(OC(=O)C(C)(C)C)Oc1cc(C(C)C)ccc12` (stereo not shown) [Example 117, 9b-Acetamido-7-isopropyl-10-oxo-9b,10-dihydro-4bH-benzo[d]indeno[1,2-b]furan-4b-yl pivalate] the value was greater than 50 µg/mL.
